{
  "source": "ChEMBL document CHEMBL5696442",
  "about": "“Discovery of type II inhibitors of TGFβ-activated kinase 1 (TAK1) and mitogen-activated protein kinase kinase kinase kinase 2 (MAP4K2)” (J Med Chem, 2015)",
  "key": {"[1]": {"biological_target": "MAP/microtubule affinity-regulating kinase 3 (Homo sapiens) (UniProt P27448)", "sequence (P27448 whole entry, looked up)": "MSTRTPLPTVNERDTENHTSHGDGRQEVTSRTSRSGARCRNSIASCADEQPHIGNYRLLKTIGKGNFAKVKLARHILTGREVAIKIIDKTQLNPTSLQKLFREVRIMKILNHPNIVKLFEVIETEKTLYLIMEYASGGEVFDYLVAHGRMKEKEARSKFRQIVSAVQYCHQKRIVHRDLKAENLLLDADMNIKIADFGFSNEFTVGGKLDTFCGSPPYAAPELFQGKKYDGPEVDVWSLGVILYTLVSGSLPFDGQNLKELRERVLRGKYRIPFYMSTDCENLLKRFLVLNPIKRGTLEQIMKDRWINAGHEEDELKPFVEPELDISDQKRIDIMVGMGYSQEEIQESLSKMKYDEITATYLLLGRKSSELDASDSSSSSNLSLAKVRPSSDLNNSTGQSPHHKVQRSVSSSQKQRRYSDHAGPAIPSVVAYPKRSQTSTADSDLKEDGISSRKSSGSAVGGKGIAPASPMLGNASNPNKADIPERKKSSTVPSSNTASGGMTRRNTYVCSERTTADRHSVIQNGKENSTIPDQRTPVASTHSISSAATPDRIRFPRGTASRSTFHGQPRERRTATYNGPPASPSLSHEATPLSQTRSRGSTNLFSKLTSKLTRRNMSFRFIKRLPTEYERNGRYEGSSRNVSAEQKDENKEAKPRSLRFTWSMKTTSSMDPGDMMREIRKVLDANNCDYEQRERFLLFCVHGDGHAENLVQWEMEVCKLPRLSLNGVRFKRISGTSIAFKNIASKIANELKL", "assay": "Inhibition of MARK3 Lys1 labeling site in human A-375 cells at 0.5 uM by KiNativ Profiling analysis relative to control", "assay_type": "cell-based"}, "[2]": {"biological_target": "Calcium/calmodulin-dependent protein kinase type II subunit gamma (Homo sapiens) (UniProt Q13555)", "sequence (Q13555 whole entry)": "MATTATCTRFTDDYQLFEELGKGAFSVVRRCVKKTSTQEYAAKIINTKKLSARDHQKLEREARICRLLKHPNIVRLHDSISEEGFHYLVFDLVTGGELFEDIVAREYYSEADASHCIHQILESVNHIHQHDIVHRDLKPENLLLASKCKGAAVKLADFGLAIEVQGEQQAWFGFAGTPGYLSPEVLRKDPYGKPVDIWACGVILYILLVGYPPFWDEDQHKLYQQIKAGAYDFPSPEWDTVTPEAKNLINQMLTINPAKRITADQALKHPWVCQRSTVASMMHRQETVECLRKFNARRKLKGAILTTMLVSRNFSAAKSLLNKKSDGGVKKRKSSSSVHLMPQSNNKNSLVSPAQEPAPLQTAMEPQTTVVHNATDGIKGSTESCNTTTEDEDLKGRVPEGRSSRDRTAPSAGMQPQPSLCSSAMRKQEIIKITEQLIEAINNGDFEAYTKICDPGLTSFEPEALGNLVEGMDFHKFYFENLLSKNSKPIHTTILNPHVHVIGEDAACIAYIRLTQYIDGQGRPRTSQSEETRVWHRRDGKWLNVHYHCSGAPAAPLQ", "assay": "Inhibition of CaMK2g Lys1 labeling site harbouring TSTQEYAAKIINTK in human A-375 cells at 5 uM by KiNativ Profiling analysis relative to control", "assay_type": "cell-based"}, "[3]": {"biological_target": "Mitogen-activated protein kinase kinase kinase 19 (Homo sapiens) (UniProt Q56UN5)", "assay": "Inhibition of YSK4 (unknown origin) at 1 uM by Ambit Kinomescan binding assay relative to control; values are per cent of control"}, "[4]": {"test_system": "Tyrosine-protein kinase ABL1 (Homo sapiens), P00519 [E255K]", "assay": "Inhibition of phosphorylated ABL1 E255K mutant (unknown origin) at 1 uM by Ambit Kinomescan binding assay relative to control; values are per cent of control"}, "[5]": {"biological_target": "Serine/threonine-protein kinase 4 (Homo sapiens) (UniProt Q13043)", "sequence (Q13043 whole entry, looked up)": "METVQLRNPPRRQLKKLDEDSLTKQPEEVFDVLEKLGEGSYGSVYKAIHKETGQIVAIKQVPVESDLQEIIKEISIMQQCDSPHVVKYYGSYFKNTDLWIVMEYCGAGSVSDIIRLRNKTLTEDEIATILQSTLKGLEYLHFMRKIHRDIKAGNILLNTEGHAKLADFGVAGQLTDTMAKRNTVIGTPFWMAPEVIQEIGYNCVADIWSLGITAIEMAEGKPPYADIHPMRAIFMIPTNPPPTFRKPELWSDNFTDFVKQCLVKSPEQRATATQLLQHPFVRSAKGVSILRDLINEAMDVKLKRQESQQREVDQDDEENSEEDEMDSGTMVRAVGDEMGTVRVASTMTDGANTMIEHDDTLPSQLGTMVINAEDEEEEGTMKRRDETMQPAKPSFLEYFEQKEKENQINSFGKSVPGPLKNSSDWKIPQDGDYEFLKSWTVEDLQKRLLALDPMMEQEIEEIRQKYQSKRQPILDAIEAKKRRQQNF", "assay": "Inhibition of MST1 Lys2 labeling site harbouring DIKAGNILLNTEGHAK in human A-375 cells at 5 uM by KiNativ Profiling analysis relative to control"}, "[6]": {"biological_target": "T1, Mitogen-activated protein kinase 13 (Homo sapiens) (UniProt O15264)", "T1 sequence (whole entry)": "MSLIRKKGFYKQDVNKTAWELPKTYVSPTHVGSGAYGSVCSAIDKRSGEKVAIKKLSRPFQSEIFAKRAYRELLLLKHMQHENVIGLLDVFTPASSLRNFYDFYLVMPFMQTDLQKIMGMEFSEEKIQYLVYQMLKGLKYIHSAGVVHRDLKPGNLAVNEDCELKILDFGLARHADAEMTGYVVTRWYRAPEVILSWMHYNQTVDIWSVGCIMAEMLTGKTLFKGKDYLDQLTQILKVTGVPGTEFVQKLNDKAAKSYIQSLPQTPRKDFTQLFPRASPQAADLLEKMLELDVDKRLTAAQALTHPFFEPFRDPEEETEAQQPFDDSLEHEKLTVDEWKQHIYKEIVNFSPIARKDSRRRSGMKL", "assay": "Inhibition of p38 delta (unknown origin) at 1 uM by Ambit Kinomescan binding assay relative to control"}, "[7]": {"biological_target": "Dual specificity tyrosine-phosphorylation-regulated kinase 1A (Homo sapiens) (UniProt Q13627)", "assay": "Inhibition of DYRK1A (unknown origin) at 1 uM by Ambit Kinomescan binding assay relative to control; values are per cent of control"}, "[8]": {"biological_target": "Tyrosine-protein kinase JAK1 (Homo sapiens) (UniProt P23458)", "assay": "Inhibition of JAK1 in human A-375 cells at 0.05 uM by KiNativ Profiling analysis relative to control", "assay_type": "cell-based"}, "[9]": {"biological_target": "Casein kinase I isoform alpha (Homo sapiens) (UniProt P48729)", "assay": "Inhibition of CK1 alpha K2 labeling site in human Huh-7 cells at 1 uM by KiNativ Profiling analysis relative to control", "assay_type": "cell-based"}, "[10]": {"biological_target": "Interleukin-1 receptor-associated kinase 1 (Homo sapiens) (UniProt P51617)", "sequence (P51617 whole entry, looked up)": "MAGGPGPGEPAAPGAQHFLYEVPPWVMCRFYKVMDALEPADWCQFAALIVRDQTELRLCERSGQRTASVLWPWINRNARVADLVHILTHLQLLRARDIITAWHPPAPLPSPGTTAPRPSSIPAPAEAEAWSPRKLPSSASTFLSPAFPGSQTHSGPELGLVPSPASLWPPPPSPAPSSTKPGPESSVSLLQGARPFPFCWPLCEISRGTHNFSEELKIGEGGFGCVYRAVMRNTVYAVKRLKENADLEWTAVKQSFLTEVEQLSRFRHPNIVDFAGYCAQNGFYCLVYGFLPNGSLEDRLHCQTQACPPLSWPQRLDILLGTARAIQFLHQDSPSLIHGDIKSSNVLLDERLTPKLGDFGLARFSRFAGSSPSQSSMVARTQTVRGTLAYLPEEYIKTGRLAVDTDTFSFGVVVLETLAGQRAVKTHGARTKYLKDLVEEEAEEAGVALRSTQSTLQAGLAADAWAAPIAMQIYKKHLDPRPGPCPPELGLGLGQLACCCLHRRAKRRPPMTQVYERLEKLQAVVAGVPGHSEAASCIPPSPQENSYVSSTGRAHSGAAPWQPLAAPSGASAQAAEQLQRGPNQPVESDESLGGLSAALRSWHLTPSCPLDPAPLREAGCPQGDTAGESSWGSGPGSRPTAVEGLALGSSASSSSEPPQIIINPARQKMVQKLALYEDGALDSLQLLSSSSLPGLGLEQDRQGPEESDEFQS", "assay": "Inhibition of IRAK1 Lys2 labeling site in human A-375 cells at 0.5 uM by KiNativ Profiling analysis relative to control", "assay_type": "cell-based"}, "[11]": {"biological_target": "Cyclin-dependent kinase 14 (Homo sapiens) (UniProt O94921)", "assay": "Inhibition of PFTAIRE1 Lys1 labeling site in human A-375 cells at 0.05 uM by KiNativ Profiling analysis relative to control"}, "[12]": {"biological_target": "Ephrin type-A receptor 6 (Homo sapiens) (UniProt Q9UF33)", "sequence (Q9UF33 whole entry)": "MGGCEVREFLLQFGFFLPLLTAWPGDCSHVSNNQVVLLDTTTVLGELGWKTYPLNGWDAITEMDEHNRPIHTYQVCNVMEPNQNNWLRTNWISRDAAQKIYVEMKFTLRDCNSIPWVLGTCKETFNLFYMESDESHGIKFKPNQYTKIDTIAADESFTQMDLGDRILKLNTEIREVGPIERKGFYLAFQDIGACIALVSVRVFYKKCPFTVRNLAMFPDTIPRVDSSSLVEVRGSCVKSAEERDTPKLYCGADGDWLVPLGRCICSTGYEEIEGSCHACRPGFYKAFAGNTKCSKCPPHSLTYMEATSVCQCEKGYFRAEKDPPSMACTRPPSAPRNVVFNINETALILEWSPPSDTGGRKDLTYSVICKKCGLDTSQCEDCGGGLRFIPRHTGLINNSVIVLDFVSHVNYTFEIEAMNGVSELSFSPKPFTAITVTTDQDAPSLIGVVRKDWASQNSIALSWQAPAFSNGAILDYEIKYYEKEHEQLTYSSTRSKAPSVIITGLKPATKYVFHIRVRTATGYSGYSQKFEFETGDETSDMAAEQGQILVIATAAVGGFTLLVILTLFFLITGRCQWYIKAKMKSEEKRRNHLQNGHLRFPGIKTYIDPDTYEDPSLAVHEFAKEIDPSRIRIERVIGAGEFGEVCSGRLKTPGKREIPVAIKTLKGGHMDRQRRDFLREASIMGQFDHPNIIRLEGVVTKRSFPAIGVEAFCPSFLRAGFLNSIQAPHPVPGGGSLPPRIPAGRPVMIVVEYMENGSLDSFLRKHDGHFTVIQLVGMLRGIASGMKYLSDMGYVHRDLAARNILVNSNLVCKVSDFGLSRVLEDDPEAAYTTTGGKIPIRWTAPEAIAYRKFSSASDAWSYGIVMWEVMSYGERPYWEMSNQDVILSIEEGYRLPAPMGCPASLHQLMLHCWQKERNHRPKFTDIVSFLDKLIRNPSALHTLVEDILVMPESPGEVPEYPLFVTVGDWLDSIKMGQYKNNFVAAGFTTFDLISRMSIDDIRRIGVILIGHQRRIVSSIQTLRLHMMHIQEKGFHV", "assay": "Inhibition of EPHA6 (unknown origin) at 10 uM by Ambit Kinomescan binding assay"}, "[13]": {"biological_target": "T2, Dual specificity mitogen-activated protein kinase kinase 3 (Homo sapiens) (UniProt P46734)", "T2 sequence (whole entry)": "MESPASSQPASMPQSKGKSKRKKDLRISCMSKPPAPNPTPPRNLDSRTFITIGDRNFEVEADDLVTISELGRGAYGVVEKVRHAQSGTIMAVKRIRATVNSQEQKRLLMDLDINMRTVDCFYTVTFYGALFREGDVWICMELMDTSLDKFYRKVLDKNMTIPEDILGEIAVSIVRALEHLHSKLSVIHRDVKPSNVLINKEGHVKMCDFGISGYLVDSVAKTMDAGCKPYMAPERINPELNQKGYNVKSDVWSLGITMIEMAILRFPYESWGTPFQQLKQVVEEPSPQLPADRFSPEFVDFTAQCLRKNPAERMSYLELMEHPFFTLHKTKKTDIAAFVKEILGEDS", "assay": "Inhibition of MEK3 (unknown origin) at 10 uM by Ambit Kinomescan binding assay"}, "[14]": {"biological_target": "T3, Serine/threonine-protein kinase Sgk3 (Homo sapiens) (UniProt Q96BR1)", "T3 sequence (whole entry)": "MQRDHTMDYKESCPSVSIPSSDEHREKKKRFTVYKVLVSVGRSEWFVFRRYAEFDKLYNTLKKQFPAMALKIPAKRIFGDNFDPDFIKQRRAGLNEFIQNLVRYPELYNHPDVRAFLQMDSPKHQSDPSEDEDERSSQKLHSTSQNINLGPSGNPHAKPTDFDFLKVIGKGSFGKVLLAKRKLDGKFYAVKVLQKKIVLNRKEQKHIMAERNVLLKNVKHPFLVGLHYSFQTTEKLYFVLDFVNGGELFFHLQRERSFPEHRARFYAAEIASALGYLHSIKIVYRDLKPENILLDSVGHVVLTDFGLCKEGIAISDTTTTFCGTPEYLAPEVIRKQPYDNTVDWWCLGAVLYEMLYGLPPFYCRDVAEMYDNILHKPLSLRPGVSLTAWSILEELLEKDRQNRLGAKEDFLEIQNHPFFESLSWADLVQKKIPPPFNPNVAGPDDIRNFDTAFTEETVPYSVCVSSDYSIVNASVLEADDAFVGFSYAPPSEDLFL", "assay": "Inhibition of SGK3 Lys1 labeling site in human A-375 cells at 0.5 uM by KiNativ Profiling analysis relative to control", "assay_type": "cell-based"}, "[15]": {"biological_target": "5'-AMP-activated protein kinase catalytic subunit alpha-1 (Homo sapiens) (UniProt Q13131)", "assay": "Inhibition of AMPKa1 ATP labeling site in human Huh-7 cell lysate at 1 uM by KiNativ Profiling analysis relative to control", "assay_type": "subcellular"}, "[16]": {"biological_target": "Calcium/calmodulin-dependent protein kinase type II subunit gamma (Homo sapiens) (UniProt Q13555)", "assay": "Inhibition of CaMK2g Lys1 labeling site harbouring TSTQEYAAKIINTK in human Huh-7 cell lysate at 1 uM by KiNativ Profiling analysis relative to control", "assay_type": "subcellular"}, "[17]": {"biological_target": "Cyclin-dependent kinase 12 (Homo sapiens) (UniProt Q9NYV4)", "sequence (Q9NYV4 whole entry, looked up)": "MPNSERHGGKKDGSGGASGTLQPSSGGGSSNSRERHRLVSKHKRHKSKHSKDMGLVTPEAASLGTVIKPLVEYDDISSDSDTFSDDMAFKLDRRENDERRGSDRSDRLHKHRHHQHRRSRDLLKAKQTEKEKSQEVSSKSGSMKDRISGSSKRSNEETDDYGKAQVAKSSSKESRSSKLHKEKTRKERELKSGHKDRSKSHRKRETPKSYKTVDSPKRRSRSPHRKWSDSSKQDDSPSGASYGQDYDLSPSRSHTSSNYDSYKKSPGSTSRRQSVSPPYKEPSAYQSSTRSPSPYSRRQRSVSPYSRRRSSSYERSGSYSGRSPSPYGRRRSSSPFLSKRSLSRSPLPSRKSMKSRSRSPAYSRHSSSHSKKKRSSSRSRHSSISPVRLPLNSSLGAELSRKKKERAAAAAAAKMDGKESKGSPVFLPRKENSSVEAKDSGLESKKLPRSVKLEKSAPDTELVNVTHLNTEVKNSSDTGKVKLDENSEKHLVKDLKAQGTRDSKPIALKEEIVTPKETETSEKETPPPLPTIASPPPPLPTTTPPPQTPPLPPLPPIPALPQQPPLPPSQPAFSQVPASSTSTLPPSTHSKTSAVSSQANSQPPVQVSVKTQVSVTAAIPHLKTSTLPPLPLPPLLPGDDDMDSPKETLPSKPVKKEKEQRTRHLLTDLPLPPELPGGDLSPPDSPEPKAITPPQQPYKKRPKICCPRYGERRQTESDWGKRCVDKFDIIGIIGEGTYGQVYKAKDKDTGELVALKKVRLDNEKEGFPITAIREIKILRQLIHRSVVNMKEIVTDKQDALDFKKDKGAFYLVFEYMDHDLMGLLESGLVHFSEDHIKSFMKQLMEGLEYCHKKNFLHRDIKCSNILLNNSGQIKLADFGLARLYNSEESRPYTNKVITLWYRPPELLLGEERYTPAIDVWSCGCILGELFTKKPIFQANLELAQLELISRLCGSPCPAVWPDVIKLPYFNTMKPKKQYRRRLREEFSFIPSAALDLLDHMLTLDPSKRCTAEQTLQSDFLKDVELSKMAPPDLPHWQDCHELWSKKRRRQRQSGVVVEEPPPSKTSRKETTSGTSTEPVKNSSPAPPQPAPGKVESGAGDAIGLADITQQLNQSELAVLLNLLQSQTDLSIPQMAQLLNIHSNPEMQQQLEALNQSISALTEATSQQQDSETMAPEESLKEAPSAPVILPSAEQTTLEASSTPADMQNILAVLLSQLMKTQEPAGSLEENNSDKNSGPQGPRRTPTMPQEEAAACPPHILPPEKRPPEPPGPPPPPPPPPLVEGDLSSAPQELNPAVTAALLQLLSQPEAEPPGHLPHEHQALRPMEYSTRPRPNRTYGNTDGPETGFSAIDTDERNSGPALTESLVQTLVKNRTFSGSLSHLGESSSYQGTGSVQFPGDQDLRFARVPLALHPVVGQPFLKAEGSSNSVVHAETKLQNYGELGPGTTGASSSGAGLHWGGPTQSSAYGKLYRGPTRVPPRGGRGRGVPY", "assay": "Inhibition of CRK7 Lys2 labeling site in human Huh-7 cell lysate at 1 uM by KiNativ Profiling analysis relative to control", "assay_type": "subcellular"}, "[18]": {"biological_target": "Serine/threonine-protein kinase mTOR (Homo sapiens) (UniProt P42345)", "assay": "Inhibition of FRAP ATP labeling site in human Huh-7 cell lysate at 1 uM by KiNativ Profiling analysis relative to control", "assay_type": "subcellular"}},
  "note": "Active and inactive are the calls of the source. No cut-off for these calls is given here.",
  "data": [
    {"smiles": "CCN1CCN(Cc2ccc(NC(=O)c3ccc(C)c(/C=C/c4cnc5[nH]ccc5c4OC)c3)cc2C(F)(F)F)CC1", "values": [
      {"measurement": "inhibition", "setting": "[1]", "result": 12.3, "unit": "%"},
      {"measurement": "inhibition", "setting": "[2]", "result": 14.6, "unit": "%"},
      {"measurement": "percent of control", "setting": "[3]", "result": 1.1, "unit": "%"},
      {"measurement": "percent of control", "setting": "[4]", "result": 0.85, "unit": "%"},
      {"measurement": "inhibition", "setting": "[5]", "result": 14.1, "unit": "%"},
      {"measurement": "inhibition", "setting": "[6]", "result": 67, "unit": "%"},
      {"measurement": "residual activity", "setting": "[7]", "result": 100, "unit": "%"},
      {"measurement": "inhibition", "setting": "[8]", "result": 12.3, "unit": "%"}
    ]},
    {"smiles": "CCN1CCN(Cc2ccc(NC(=O)c3ccc(C)c(Oc4ccnc5[nH]ccc45)c3)cc2C(F)(F)F)CC1", "values": [
      {"measurement": "inhibition", "setting": "[9]", "result": 2.9, "unit": "%"},
      {"measurement": "inhibition", "setting": "[10]", "result": 2.5, "unit": "%"},
      {"measurement": "inhibition", "setting": "[11]", "result": 8.3, "unit": "%"},
      {"measurement": "inhibition", "setting": "[12]", "result": "inactive"},
      {"measurement": "inhibition", "setting": "[13]", "result": "inactive"},
      {"measurement": "inhibition", "setting": "[14]", "result": -9.6, "unit": "%"}
    ]},
    {"smiles": "CNc1cc(Oc2cc(C(=O)Nc3cc(N4CCN(C)CC4)cc(C(F)(F)F)c3)ccc2C)ncn1", "values": [
      {"measurement": "inhibition", "setting": "[15]", "result": 11.2, "unit": "%"},
      {"measurement": "inhibition", "setting": "[16]", "result": 6, "unit": "%"},
      {"measurement": "inhibition", "setting": "[17]", "result": -8.3, "unit": "%"},
      {"measurement": "inhibition", "setting": "[18]", "result": -1.8, "unit": "%"}
    ]}
  ]
}
